Data taken from ChEMBL document CHEMBL4507262, “Data for DCP probe A-1596586” (2021).
Activity calls are given as the source filed them. The rule behind the calls is not given here.

Tests used:
[1] = target: Cystic fibrosis transmembrane conductance regulator (Homo sapiens, UniProt P13569); test: HBE-TECC (Human Bronchial Epithelial- Trans-Epithelial Current Clamp) assay
[2] = target: Angiotensin-converting enzyme (Homo sapiens) (UniProt P12821); test: ACE (h) Eurofins-Cerep enzyme and uptake assay; conditions: Compound concentration 10.0 uM
[3] = target: T1, Alpha-2A adrenergic receptor (Homo sapiens) (UniProt P08913); test: Alpha2A (h) Eurofins-Cerep binding assay; set-up: ligand concentration 1 nM; conditions: filed as antagonist, Compound concentration 10.0 uM
T1 sequence (whole entry): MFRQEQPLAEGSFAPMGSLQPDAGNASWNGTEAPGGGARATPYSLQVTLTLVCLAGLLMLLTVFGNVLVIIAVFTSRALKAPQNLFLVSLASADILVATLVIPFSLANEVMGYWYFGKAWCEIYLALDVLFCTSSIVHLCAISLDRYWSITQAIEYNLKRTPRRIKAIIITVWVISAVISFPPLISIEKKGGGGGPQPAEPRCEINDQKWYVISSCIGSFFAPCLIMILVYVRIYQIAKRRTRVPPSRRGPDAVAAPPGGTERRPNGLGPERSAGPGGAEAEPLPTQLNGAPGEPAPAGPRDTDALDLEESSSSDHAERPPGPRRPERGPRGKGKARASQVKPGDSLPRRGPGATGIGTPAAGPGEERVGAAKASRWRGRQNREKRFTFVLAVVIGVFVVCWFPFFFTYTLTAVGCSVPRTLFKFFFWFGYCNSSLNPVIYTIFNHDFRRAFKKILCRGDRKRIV

[4] = target: Beta-1 adrenergic receptor (Homo sapiens) (UniProt P08588); test: Beta1 (h) Eurofins-Cerep binding assay; set-up: ligand concentration 0.3 nM; conditions: filed as agonist, Compound concentration 10.0 uM
Sequence of Beta-1 adrenergic receptor (Homo sapiens) (P08588 whole entry, looked up): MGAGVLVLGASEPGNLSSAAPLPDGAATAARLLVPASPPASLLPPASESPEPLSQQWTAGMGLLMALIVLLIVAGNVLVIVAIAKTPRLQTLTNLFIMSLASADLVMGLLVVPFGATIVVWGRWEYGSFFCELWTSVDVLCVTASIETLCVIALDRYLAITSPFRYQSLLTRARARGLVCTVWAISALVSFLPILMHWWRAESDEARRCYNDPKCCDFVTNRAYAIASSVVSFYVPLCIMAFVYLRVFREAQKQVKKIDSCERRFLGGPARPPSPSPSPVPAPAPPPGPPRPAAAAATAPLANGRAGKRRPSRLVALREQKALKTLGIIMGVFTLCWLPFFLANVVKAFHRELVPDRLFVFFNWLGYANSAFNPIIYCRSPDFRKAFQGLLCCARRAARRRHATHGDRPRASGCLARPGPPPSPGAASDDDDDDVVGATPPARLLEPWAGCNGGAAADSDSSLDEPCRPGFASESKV

[5] = target: Type-1 angiotensin II receptor (Homo sapiens) (UniProt P30556); test: AT1 (h) Eurofins-Cerep binding assay; set-up: ligand concentration 0.05 nM; conditions: filed as antagonist, Compound concentration 10.0 uM
[6] = target: Type-2 angiotensin II receptor (Homo sapiens) (UniProt P50052); test: AT2 (h) Eurofins-Cerep binding assay; set-up: ligand concentration 0.01 nM; conditions: filed as agonist, Compound concentration 10.0 uM
[7] = target: Glucocorticoid receptor (Homo sapiens) (UniProt P04150); test: GR (h) Eurofins-Cerep binding assay; set-up: ligand concentration 1.5 nM; conditions: filed as agonist, Compound concentration 10.0 uM
[8] = system: Tyrosine-protein kinase ABL1 (Homo sapiens), P00519 [F317L]; conditions: Compound concentration 1000.0 nM
[9] = target: 5'-AMP-activated protein kinase catalytic subunit alpha-1 (Homo sapiens) (UniProt Q13131); conditions: Compound concentration 1000.0 nM
[10] = target: Dual specificity protein kinase CLK4 (Homo sapiens) (UniProt Q9HAZ1); conditions: Compound concentration 1000.0 nM
[11] = target: Macrophage colony-stimulating factor 1 receptor (Homo sapiens) (UniProt P07333); conditions: Compound concentration 1000.0 nM
[12] = target: Receptor tyrosine-protein kinase erbB-4 (Homo sapiens) (UniProt Q15303); conditions: Compound concentration 1000.0 nM
[13] = target: Beta-adrenergic receptor kinase 1 (Homo sapiens) (UniProt P25098); conditions: Compound concentration 1000.0 nM
[14] = target: Homeodomain-interacting protein kinase 1 (Homo sapiens) (UniProt Q86Z02); conditions: Compound concentration 1000.0 nM
Sequence of Homeodomain-interacting protein kinase 1 (Homo sapiens) (Q86Z02 whole entry, looked up): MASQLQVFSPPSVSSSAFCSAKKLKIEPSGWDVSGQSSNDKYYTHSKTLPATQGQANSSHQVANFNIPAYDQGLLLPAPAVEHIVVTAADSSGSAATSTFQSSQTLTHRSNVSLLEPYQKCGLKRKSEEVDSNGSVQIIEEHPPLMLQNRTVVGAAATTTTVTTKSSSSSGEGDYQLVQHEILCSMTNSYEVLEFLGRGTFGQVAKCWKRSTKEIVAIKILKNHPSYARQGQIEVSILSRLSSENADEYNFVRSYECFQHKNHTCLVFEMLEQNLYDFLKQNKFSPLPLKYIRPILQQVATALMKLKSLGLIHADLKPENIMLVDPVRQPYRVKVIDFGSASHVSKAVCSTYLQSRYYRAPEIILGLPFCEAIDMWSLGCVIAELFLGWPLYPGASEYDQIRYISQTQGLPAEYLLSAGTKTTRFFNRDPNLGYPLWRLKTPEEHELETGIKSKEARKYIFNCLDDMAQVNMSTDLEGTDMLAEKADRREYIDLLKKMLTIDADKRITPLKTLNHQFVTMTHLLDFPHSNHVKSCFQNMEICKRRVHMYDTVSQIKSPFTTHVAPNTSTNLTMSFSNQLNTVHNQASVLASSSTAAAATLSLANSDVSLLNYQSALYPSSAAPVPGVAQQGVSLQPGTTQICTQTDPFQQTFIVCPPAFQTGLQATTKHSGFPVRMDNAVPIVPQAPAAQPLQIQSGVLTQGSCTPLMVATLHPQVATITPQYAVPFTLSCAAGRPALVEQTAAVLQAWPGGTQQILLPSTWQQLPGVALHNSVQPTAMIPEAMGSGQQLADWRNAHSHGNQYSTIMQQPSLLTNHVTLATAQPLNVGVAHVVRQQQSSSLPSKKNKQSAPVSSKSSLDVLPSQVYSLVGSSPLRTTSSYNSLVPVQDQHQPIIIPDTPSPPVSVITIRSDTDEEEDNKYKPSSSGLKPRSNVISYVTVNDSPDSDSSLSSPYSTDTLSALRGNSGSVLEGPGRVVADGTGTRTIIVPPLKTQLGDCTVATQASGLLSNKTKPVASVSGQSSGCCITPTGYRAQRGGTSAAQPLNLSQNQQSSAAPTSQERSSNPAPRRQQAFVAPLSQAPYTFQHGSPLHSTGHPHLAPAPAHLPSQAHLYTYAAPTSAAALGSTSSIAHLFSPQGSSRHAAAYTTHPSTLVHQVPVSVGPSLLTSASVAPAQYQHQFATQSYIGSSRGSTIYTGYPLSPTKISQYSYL

[15] = target: Inhibitor of nuclear factor kappa-B kinase subunit alpha (Homo sapiens) (UniProt O15111); conditions: Compound concentration 1000.0 nM
[16] = target: Insulin receptor (Homo sapiens) (UniProt P06213); conditions: Compound concentration 1000.0 nM
[17] = target: Insulin receptor-related protein (Homo sapiens) (UniProt P14616); conditions: Compound concentration 1000.0 nM
Sequence of Insulin receptor-related protein (Homo sapiens) (P14616 27-742 limits assumed): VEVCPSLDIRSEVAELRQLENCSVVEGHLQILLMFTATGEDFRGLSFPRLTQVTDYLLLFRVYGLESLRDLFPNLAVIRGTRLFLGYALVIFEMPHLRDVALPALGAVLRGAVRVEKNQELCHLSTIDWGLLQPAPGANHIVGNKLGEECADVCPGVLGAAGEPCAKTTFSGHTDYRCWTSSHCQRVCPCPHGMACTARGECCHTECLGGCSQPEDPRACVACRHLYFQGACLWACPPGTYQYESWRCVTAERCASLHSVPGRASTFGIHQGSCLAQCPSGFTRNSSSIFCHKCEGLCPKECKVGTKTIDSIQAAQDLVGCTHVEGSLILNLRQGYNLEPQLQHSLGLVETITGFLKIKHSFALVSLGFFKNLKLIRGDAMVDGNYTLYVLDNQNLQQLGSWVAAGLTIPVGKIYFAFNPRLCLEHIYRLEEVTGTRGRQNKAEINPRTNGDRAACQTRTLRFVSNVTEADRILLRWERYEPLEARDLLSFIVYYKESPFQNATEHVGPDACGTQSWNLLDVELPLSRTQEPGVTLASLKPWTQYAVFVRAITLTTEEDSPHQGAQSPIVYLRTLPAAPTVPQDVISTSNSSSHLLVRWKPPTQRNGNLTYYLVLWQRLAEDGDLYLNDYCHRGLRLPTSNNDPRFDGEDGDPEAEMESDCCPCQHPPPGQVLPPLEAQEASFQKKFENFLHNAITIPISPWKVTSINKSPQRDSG
Sequence of Insulin receptor-related protein (Homo sapiens) (P14616 747-1297 limits assumed): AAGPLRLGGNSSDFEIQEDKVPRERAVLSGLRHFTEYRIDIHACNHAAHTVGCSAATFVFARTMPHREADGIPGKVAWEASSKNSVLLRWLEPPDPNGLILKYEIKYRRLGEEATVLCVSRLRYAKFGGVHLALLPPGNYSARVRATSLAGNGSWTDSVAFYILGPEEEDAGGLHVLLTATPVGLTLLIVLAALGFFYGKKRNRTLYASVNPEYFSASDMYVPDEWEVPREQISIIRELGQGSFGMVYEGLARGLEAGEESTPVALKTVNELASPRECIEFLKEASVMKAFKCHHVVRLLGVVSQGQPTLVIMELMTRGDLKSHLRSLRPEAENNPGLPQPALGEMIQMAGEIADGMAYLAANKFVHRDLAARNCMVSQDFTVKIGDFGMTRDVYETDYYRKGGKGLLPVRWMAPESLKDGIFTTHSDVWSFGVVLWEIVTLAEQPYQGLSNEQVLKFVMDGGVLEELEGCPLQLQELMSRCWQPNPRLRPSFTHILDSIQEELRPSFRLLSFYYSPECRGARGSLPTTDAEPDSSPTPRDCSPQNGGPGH

[18] = target: Interleukin-1 receptor-associated kinase 1 (Homo sapiens) (UniProt P51617); conditions: Compound concentration 1000.0 nM
[19] = target: Interleukin-1 receptor-associated kinase 4 (Homo sapiens) (UniProt Q9NWZ3); conditions: Compound concentration 1000.0 nM
[20] = target: Mitogen-activated protein kinase 9 (Homo sapiens) (UniProt P45984); conditions: Compound concentration 1000.0 nM
[21] = system: Mast/stem cell growth factor receptor Kit (Homo sapiens), P10721 [V559D,V654A]; conditions: Compound concentration 1000.0 nM
[22] = target: Leukocyte tyrosine kinase receptor (Homo sapiens) (UniProt P29376); conditions: Compound concentration 1000.0 nM
[23] = target: Mitogen-activated protein kinase kinase kinase kinase 3 (Homo sapiens) (UniProt Q8IVH8); conditions: Compound concentration 1000.0 nM
[24] = target: Serine/threonine-protein kinase MARK1 (Homo sapiens) (UniProt Q9P0L2); conditions: Compound concentration 1000.0 nM
Sequence of Serine/threonine-protein kinase MARK1 (Homo sapiens) (Q9P0L2 whole entry, looked up): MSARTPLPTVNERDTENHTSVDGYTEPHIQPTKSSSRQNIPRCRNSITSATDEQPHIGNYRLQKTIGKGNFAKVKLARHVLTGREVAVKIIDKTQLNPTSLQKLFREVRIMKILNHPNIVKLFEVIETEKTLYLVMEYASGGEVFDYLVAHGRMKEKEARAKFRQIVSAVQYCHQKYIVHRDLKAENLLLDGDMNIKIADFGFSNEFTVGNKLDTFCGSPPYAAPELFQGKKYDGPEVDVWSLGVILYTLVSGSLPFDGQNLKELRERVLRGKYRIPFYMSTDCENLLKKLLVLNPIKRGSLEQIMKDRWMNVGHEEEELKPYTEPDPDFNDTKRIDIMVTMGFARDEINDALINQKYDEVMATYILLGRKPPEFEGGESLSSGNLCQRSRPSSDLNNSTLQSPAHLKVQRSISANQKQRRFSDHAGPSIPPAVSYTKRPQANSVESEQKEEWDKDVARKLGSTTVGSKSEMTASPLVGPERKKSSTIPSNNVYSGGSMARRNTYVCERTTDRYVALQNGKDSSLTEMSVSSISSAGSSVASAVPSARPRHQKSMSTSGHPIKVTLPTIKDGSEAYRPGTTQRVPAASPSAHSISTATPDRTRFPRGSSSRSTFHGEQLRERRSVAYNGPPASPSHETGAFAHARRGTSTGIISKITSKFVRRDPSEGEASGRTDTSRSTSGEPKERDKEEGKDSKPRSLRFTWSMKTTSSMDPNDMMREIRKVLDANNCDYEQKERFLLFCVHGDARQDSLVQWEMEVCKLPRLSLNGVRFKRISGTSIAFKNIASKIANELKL

[25] = target: MAP/microtubule affinity-regulating kinase 3 (Homo sapiens) (UniProt P27448); conditions: Compound concentration 1000.0 nM
Sequence of MAP/microtubule affinity-regulating kinase 3 (Homo sapiens) (P27448 whole entry, looked up): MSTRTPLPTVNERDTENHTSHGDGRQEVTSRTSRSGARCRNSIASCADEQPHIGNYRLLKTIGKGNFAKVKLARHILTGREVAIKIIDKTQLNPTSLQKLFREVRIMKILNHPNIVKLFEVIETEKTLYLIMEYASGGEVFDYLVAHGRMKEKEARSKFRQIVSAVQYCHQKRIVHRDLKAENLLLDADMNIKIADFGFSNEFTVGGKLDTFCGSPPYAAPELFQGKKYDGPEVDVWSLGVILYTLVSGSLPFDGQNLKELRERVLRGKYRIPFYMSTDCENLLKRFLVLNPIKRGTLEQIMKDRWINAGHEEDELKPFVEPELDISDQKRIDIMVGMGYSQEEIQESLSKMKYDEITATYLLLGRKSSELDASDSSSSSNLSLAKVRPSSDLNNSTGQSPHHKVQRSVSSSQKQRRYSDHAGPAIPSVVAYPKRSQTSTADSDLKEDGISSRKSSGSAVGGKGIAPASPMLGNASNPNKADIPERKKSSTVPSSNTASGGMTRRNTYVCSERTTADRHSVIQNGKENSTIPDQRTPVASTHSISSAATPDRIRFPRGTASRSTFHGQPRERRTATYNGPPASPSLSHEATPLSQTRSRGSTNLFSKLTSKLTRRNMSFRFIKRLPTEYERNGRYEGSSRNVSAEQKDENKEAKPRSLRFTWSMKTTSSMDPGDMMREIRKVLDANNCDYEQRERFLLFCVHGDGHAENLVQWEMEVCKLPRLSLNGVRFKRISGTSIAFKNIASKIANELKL

[26] = target: MAP/microtubule affinity-regulating kinase 4 (Homo sapiens) (UniProt Q96L34); conditions: Compound concentration 1000.0 nM
[27] = target: Dual specificity mitogen-activated protein kinase kinase 1 (Homo sapiens) (UniProt Q02750); conditions: Compound concentration 1000.0 nM
[28] = target: Dual specificity mitogen-activated protein kinase kinase 4 (Homo sapiens) (UniProt P45985); conditions: Compound concentration 1000.0 nM
[29] = system: Hepatocyte growth factor receptor (Homo sapiens), P08581 [M1250T]; conditions: Compound concentration 1000.0 nM
[30] = target: Mitogen-activated protein kinase kinase kinase 10 (Homo sapiens) (UniProt Q02779); conditions: Compound concentration 1000.0 nM
[31] = target: Myosin light chain kinase family member 4 (Homo sapiens) (UniProt Q86YV6); conditions: Compound concentration 1000.0 nM
[32] = target: Serine/threonine-protein kinase Nek6 (Homo sapiens) (UniProt Q9HC98); conditions: Compound concentration 1000.0 nM
[33] = target: Serine/threonine-protein kinase Nek9 (Homo sapiens) (UniProt Q8TD19); conditions: Compound concentration 1000.0 nM
[34] = target: Mitogen-activated protein kinase 12 (Homo sapiens) (UniProt P53778); conditions: Compound concentration 1000.0 nM
[35] = target: Calcium-dependent protein kinase 1 (Plasmodium falciparum) (UniProt P62344); conditions: Compound concentration 1000.0 nM
Sequence of Calcium-dependent protein kinase 1 (Plasmodium falciparum) (P62344 2-524 limits assumed): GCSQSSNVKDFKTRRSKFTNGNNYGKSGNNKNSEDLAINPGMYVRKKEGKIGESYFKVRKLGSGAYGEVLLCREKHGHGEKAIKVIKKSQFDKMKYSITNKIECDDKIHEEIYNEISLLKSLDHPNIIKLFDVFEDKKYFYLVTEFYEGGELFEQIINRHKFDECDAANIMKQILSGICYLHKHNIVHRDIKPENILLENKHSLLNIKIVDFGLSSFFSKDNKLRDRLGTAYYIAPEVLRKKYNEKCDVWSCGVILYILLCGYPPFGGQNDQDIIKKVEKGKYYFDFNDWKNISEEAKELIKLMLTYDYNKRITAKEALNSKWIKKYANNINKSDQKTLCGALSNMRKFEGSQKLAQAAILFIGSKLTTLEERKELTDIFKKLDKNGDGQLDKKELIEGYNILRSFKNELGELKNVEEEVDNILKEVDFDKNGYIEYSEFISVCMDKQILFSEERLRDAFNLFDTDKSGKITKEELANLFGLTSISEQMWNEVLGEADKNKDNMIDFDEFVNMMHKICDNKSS

[36] = target: Serine/threonine-protein kinase pim-1 (Homo sapiens) (UniProt P11309); conditions: Compound concentration 1000.0 nM
[37] = target: Protein-tyrosine kinase 2-beta (Homo sapiens) (UniProt Q14289); conditions: Compound concentration 1000.0 nM
[38] = target: 5-hydroxytryptamine receptor 1D (Homo sapiens) (UniProt P28221); conditions: Compound concentration 10.0 uM
[39] = target: Delta-type opioid receptor (Homo sapiens) (UniProt P41143); conditions: Compound concentration 10.0 uM

COc1ccc2c(c1)O[C@H](c1ccc(OC)c(OC)c1)C[C@@H]2NC(=O)C1(c2ccc3c(c2)OC(F)(F)O3)CC1 [A-1596584]
EC50 [1]: > 3000 nM (not active)
% Inhibition of Control Values (Mean n=2) [2]: -28.5%
% Inhibition of Control Specific Binding (Mean n=2) [3]: 5.1%
% Inhibition of Control Specific Binding (Mean n=2) [4]: -2.1%
% Inhibition of Control Specific Binding (Mean n=2) [5]: 12.3%
% Inhibition of Control Specific Binding (Mean n=2) [6]: -3.4%
% Inhibition of Control Specific Binding (Mean n=2) [7]: 13.7%
residual activity [8]: 100%
residual activity [9]: 100%
residual activity [10]: 92%
residual activity [11]: 100%
residual activity [12]: 94%
residual activity [13]: 84%
residual activity [14]: 87%
residual activity [15]: 89%
residual activity [16]: 82%
residual activity [17]: 100%
residual activity [18]: 93%
residual activity [19]: 100%
residual activity [20]: 92%
residual activity [21]: 100%
residual activity [22]: 100%
residual activity [23]: 100%
residual activity [24]: 79%
residual activity [25]: 95%
residual activity [26]: 88%
residual activity [27]: 100%
residual activity [28]: 100%
residual activity [29]: 89%
residual activity [30]: 97%
residual activity [31]: 100%
residual activity [32]: 100%
residual activity [33]: 100%
residual activity [34]: 98%
residual activity [35]: 79%
residual activity [36]: 100%
residual activity [37]: 100%
inhibition [38]: 6.1%
inhibition [39]: -9.84%

COc1ccc2c(c1)O[C@@H](c1ccc(OC)c(OC)c1)C[C@H]2NC(=O)C1(c2ccc3c(c2)OC(F)(F)O3)CC1 [A-1596586]
EC50 [1]: 28 nM (active)
% Inhibition of Control Values (Mean n=2) [2]: -94%
% Inhibition of Control Specific Binding (Mean n=2) [3]: 8.7%
% Inhibition of Control Specific Binding (Mean n=2) [4]: 3.1%
% Inhibition of Control Specific Binding (Mean n=2) [5]: -1.1%
% Inhibition of Control Specific Binding (Mean n=2) [6]: 4.9%
% Inhibition of Control Specific Binding (Mean n=2) [7]: 22.1%
residual activity [8]: 76%
residual activity [9]: 80%
residual activity [10]: 100%
residual activity [11]: 100%
residual activity [12]: 90%
residual activity [13]: 100%
residual activity [14]: 86%
residual activity [15]: 95%
residual activity [16]: 79%
residual activity [17]: 100%
residual activity [18]: 80%
residual activity [19]: 82%
residual activity [20]: 83%
residual activity [21]: 100%
residual activity [22]: 100%
residual activity [23]: 90%
residual activity [24]: 100%
residual activity [25]: 100%
residual activity [26]: 92%
residual activity [27]: 86%
residual activity [28]: 92%
residual activity [29]: 95%
residual activity [30]: 100%
residual activity [31]: 97%
residual activity [32]: 100%
residual activity [33]: 100%
residual activity [34]: 100%
residual activity [35]: 70%
residual activity [36]: 91%
residual activity [37]: 100%
inhibition [38]: 4.36%
inhibition [39]: -7.29%
